{"source": "patent US20220022465A1", "about": "“METHODS AND COMPOSITIONS FOR REPELLING BIRDS IN CROP PLANTS” (Bayer Aktiengesellschaft, priority 2019, published 2022)", "test_system": "pigeons", "experiment": "Third repellency test 3.3, compared with pigeons offered untreated seeds in parallel at Day 0", "assay_type": "in vivo", "source_text": "The test procedure was however slightly changed compared to the trials in Examples 3.1 and 3.2. Indeed, instead of simply comparing the effect of the tested compositions against the untreated seeds offered to the pigeons at Day-1, here a set of the pigeons was also offered untreated seeds at Day 0 in parallel to the set of pigeons being offered the seeds treated with a composition. The results for the set of pigeons having received the treated seeds are therefore compared to the results for the set of pigeons having received the untreated seeds in parallel at Day 0 (instead of the results for the set of the pigeons having received the untreated seeds at Day-1). Two trials under this setting have been performed with different compositions.\nTrial 1: • Black pepper at the dose of 40.5 ml/50000 corn seeds • Garlic at the dose of 4.5 ml/50000 corn seeds • Mixture of Black pepper (90%) and garlic (10%) at the dose of 45 ml/50000 corn seeds\nTrial 2: • Black pepper at the dose of 40.5 ml/50000 corn seeds • Garlic at the dose of 4.5 ml/50000 corn seeds • Mixture of Black pepper (90%) and garlic (10%) at the dose of 45 ml/50000 corn seeds • Thiram at the dose of 45 ml/50000 corn seeds", "data": [{"smiles": "CN(C)C(=S)SSC(=S)N(C)C", "note": "[Thiram]", "values": [{"measurement": "Percentage (%) of reduction of feed consumption", "setting": "Trial 2, 45 ml per 50000 maize seeds", "result": 65, "unit": "%"}, {"measurement": "Repellency effect on seed consumption, in words", "setting": "test 3.3, doses of Table 4", "result": "good repellency effect on seed consumption"}]}]}
